Test results published in article PMC8185074, “Anchor extension: a structure-guided approach to design cyclic peptides targeting enzyme active sites” (Nature Communications, 2021).
Peptide text beside a SMILES is read from it.

What was measured:
Assay type in all cases: biochemical
HDAC8 = molecular target: T1, HDAC8 (Homo sapiens, UniProt Q9BY41); experiment: HDAC8 inhibition, full IC50 measurement (Reaction Biology; fluorogenic p53 peptide RHKK(Ac)AMC); conditions: t1/t2 replicates
T1 construct: purchased Reaction Biology Corporation (assay run by the CRO)
T1 sequence (Q9BY41 1-377): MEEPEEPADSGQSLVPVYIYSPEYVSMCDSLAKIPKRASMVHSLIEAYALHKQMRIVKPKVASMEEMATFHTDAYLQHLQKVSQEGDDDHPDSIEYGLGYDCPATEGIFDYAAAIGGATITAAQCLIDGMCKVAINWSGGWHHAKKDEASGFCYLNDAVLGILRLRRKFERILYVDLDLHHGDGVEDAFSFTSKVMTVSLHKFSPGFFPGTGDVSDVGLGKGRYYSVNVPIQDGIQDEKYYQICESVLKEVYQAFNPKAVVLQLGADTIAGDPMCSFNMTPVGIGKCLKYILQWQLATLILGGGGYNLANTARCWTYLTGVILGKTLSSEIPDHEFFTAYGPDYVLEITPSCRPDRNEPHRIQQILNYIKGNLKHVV
Summary of the method: (§1)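 The reaction was a 1 h, 30 °C incubation of enzyme, acoustically added peptide and 50 μM p53-derived AMC substrate in pH 8.0 Tris buffer with NaCl, KCl, MgCl2, 1 mg/ml BSA and 1% DMSO. Duplicate values were averaged.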

HDAC3 = molecular target: T2, HDAC3 (Homo sapiens, UniProt O15379); experiment: HDAC3 inhibition, full IC50 measurement (Reaction Biology; fluorogenic p53 peptide RHKK(Ac)AMC)
T2 construct: purchased Reaction Biology Corporation (assay run by the CRO)
T2 sequence (O15379 whole entry): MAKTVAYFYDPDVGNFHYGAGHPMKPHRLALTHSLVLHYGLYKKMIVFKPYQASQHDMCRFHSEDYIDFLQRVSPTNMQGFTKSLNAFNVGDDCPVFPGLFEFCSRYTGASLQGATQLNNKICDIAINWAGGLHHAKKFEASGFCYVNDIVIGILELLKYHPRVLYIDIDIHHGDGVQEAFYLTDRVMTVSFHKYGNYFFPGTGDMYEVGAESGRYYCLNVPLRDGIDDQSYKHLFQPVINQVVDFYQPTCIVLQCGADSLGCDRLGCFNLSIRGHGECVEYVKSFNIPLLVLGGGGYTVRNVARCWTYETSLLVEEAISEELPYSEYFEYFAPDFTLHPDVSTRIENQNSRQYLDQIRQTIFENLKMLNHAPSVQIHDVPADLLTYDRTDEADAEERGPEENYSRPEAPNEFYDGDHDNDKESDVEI
T2 sequence (Q9Y618 395-489 partner limits assumed): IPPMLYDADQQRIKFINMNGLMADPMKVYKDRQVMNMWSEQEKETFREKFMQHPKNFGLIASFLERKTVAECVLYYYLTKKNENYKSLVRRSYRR
Summary of the method: as §1

HDAC6 = molecular target: T3, HDAC6 (Homo sapiens, UniProt Q9UBN7); experiment: HDAC6 inhibition, full IC50 measurement (Reaction Biology; fluorogenic p53 peptide RHKK(Ac)AMC)
T3 construct: purchased Reaction Biology Corporation (assay run by the CRO)
T3 sequence (Q9UBN7 1-1215): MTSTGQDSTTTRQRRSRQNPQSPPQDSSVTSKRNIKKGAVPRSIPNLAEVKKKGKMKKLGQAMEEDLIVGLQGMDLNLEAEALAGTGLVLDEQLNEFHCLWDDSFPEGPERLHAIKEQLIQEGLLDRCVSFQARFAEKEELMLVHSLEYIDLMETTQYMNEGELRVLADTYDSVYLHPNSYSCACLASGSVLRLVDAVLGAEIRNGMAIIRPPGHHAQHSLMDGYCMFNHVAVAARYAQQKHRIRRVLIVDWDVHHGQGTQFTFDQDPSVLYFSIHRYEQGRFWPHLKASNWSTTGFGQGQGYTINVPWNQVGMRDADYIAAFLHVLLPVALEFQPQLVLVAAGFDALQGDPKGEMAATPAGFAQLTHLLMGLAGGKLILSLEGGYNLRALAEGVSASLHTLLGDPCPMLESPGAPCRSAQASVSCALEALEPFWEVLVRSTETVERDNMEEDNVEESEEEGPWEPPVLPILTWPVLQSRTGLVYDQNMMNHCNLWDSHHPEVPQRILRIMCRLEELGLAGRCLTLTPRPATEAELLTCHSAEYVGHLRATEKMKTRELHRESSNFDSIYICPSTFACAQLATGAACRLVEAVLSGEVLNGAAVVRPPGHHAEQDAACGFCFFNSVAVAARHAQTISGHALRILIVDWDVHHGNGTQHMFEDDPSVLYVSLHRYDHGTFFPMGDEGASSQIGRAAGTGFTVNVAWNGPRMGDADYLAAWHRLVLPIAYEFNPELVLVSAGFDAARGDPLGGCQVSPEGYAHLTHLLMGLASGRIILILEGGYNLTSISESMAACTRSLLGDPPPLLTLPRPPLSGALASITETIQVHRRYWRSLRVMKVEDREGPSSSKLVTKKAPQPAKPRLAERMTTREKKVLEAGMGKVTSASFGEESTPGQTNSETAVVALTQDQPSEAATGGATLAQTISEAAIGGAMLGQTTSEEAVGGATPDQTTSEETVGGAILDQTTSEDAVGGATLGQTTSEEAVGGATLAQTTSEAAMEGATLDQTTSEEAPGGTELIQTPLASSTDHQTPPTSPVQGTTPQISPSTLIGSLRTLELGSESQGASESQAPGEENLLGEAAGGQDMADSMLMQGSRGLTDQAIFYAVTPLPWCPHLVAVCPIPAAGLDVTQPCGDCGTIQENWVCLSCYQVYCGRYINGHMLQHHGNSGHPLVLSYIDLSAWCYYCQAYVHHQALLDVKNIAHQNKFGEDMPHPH
Summary of the method: as §1

N=C(N)NCCC[C@H]1NC(=O)[C@@H]2CCCN2C(=O)[C@H](CO)NC(=O)[C@@H](Cc2c[nH]cn2)NC(=O)[C@H](CCCCCS)NC(=O)[C@H](CCCCN)NC(=O)[C@H](Cc2ccc(O)cc2)NC(=O)[C@H]2CCCN2C(=O)[C@@H](CCC(N)=O)NC1=O [des3.1.0, SHA-dHis-Ser-Pro-dArg-dGln-dPro-Tyr-Lys] (HELM PEPTIDE1{K.[O=C([C@H](CCCCCS)N[*:1])[*:2]].[dH].S.P.[dR].[dQ].[dP].Y}$PEPTIDE1,PEPTIDE1,1:R1-9:R2$$$V2.0)
HDAC8 activity raw data (signal) (HDAC8; peptide conc. 1.00E-05 M, listed as des3.1.0_t1): 177071 | HDAC8 activity raw data (signal) (HDAC8; peptide conc. 1.00E-05 M, listed as des3.1.0_t2): 217357 | HDAC8 activity raw data (signal) (HDAC8; peptide conc. 1.11E-06 M, listed as des3.1.0_t1): 702584 | HDAC8 activity raw data (signal) (HDAC8; peptide conc. 1.11E-06 M, listed as des3.1.0_t2): 678372 | HDAC8 activity raw data (signal) (HDAC8; peptide conc. 1.23E-07 M, listed as des3.1.0_t1): 829409 | HDAC8 activity raw data (signal) (HDAC8; peptide conc. 1.23E-07 M, listed as des3.1.0_t2): 942877 | HDAC8 activity raw data (signal) (HDAC8; peptide conc. 1.37E-08 M, listed as des3.1.0_t1): 914161 | HDAC8 activity raw data (signal) (HDAC8; peptide conc. 1.37E-08 M, listed as des3.1.0_t2): 1065224 | HDAC8 activity raw data (signal) (HDAC8; peptide conc. 1.52E-09 M, listed as des3.1.0_t1): 932207 | HDAC8 activity raw data (signal) (HDAC8; peptide conc. 1.52E-09 M, listed as des3.1.0_t2): 1002240 | HDAC8 activity raw data (signal) (HDAC8; peptide conc. 3.33E-06 M, listed as des3.1.0_t1): 396779 | HDAC8 activity raw data (signal) (HDAC8; peptide conc. 3.33E-06 M, listed as des3.1.0_t2): 364112 | HDAC8 activity raw data (signal) (HDAC8; peptide conc. 3.70E-07 M, listed as des3.1.0_t1): 821171 | HDAC8 activity raw data (signal) (HDAC8; peptide conc. 3.70E-07 M, listed as des3.1.0_t2): 831364 | HDAC8 activity raw data (signal) (HDAC8; peptide conc. 4.12E-08 M, listed as des3.1.0_t1): 888545 | HDAC8 activity raw data (signal) (HDAC8; peptide conc. 4.12E-08 M, listed as des3.1.0_t2): 997244 | HDAC8 activity raw data (signal) (HDAC8; peptide conc. 4.57E-09 M, listed as des3.1.0_t1): 750196 | HDAC8 activity raw data (signal) (HDAC8; peptide conc. 4.57E-09 M, listed as des3.1.0_t2): 946901 | HDAC8 activity raw data (signal) (HDAC8; peptide conc. 5.08E-10 M, listed as des3.1.0_t1): 807432 | HDAC8 activity raw data (signal) (HDAC8; peptide conc. 5.08E-10 M, listed as des3.1.0_t2): 990498 | HDAC3 activity raw data (signal) (HDAC3; Conc. 1.00E-05 M, t1): 46436 | HDAC3 activity raw data (signal) (HDAC3; Conc. 1.00E-05 M, t2): 68834 | HDAC3 activity raw data (signal) (HDAC3; Conc. 1.11E-06 M, t1): 407446 | HDAC3 activity raw data (signal) (HDAC3; Conc. 1.11E-06 M, t2): 414242 | HDAC3 activity raw data (signal) (HDAC3; Conc. 1.23E-07 M, t1): 842197 | HDAC3 activity raw data (signal) (HDAC3; Conc. 1.23E-07 M, t2): 849517 | HDAC3 activity raw data (signal) (HDAC3; Conc. 1.37E-08 M, t1): 932057 | HDAC3 activity raw data (signal) (HDAC3; Conc. 1.37E-08 M, t2): 998355 | HDAC3 activity raw data (signal) (HDAC3; Conc. 1.52E-09 M, t1): 936917 | HDAC3 activity raw data (signal) (HDAC3; Conc. 1.52E-09 M, t2): 1040178 | HDAC3 activity raw data (signal) (HDAC3; Conc. 3.33E-06 M, t1): 127237 | HDAC3 activity raw data (signal) (HDAC3; Conc. 3.33E-06 M, t2): 217535 | HDAC3 activity raw data (signal) (HDAC3; Conc. 3.70E-07 M, t1): 580195 | HDAC3 activity raw data (signal) (HDAC3; Conc. 3.70E-07 M, t2): 672322 | HDAC3 activity raw data (signal) (HDAC3; Conc. 4.12E-08 M, t1): 931839 | HDAC3 activity raw data (signal) (HDAC3; Conc. 4.12E-08 M, t2): 959771 | HDAC3 activity raw data (signal) (HDAC3; Conc. 4.57E-09 M, t1): 999086 | HDAC3 activity raw data (signal) (HDAC3; Conc. 4.57E-09 M, t2): 1037845 | HDAC3 activity raw data (signal) (HDAC3; Conc. 5.08E-10 M, t1): 932822 | HDAC3 activity raw data (signal) (HDAC3; Conc. 5.08E-10 M, t2): 1013267 | HDAC6 activity raw data (signal) (HDAC6; Conc. 1.00E-05 M, t1): 11537 | HDAC6 activity raw data (signal) (HDAC6; Conc. 1.00E-05 M, t2): 13038 | HDAC6 activity raw data (signal) (HDAC6; Conc. 1.11E-06 M, t1): 76742 | HDAC6 activity raw data (signal) (HDAC6; Conc. 1.11E-06 M, t2): 90822 | HDAC6 activity raw data (signal) (HDAC6; Conc. 1.23E-07 M, t1): 159657 | HDAC6 activity raw data (signal) (HDAC6; Conc. 1.23E-07 M, t2): 168002 | HDAC6 activity raw data (signal) (HDAC6; Conc. 1.37E-08 M, t1): 160112 | HDAC6 activity raw data (signal) (HDAC6; Conc. 1.37E-08 M, t2): 166776 | HDAC6 activity raw data (signal) (HDAC6; Conc. 1.52E-09 M, t1): 119928 | HDAC6 activity raw data (signal) (HDAC6; Conc. 1.52E-09 M, t2): 158551 | HDAC6 activity raw data (signal) (HDAC6; Conc. 3.33E-06 M, t1): 37434 | HDAC6 activity raw data (signal) (HDAC6; Conc. 3.33E-06 M, t2): 38190 | HDAC6 activity raw data (signal) (HDAC6; Conc. 3.70E-07 M, t1): 143033 | HDAC6 activity raw data (signal) (HDAC6; Conc. 3.70E-07 M, t2): 130317 | HDAC6 activity raw data (signal) (HDAC6; Conc. 4.12E-08 M, t1): 144961 | HDAC6 activity raw data (signal) (HDAC6; Conc. 4.12E-08 M, t2): 163766 | HDAC6 activity raw data (signal) (HDAC6; Conc. 4.57E-09 M, t1): 147758 | HDAC6 activity raw data (signal) (HDAC6; Conc. 4.57E-09 M, t2): 164399 | HDAC6 activity raw data (signal) (HDAC6; Conc. 5.08E-10 M, t1): 111941 | HDAC6 activity raw data (signal) (HDAC6; Conc. 5.08E-10 M, t2): 129043
